Test results published in ChEMBL document CHEMBL1201862, “PubChem BioAssay data set” (2004).
Blank lines part the entries; values can stand above or below the molecule they belong to. The source made the active and inactive calls.

Assays:
[1] = target: Peroxisome proliferator-activated receptor gamma/Nuclear receptor coactivator 1 (Homo sapiens, UniProt P37231); experiment: (§1) TR-FRET dose response biochemical High Throughput Screening assay for agonists of the steroid receptor coactivator 1 (SRC-1) recruitment by the peroxisome proliferator-activated receptor gamma (PPAR gamma): non-selective agonists. [Related pubchem assays (depositor defined):AID1300, AID1808, AID504735, AID631]; assay type: protein assay
[2] = target: Peroxisome proliferator-activated receptor gamma/Nuclear receptor coactivator 3 (Homo sapiens, UniProt P37231); experiment: as §1, with “3 (SRC-3)” for “1 (SRC-1)”, “assays: 1301 (Confirmation screen.), 1048 (Primary screen.)]” for “assays (depositor defined):AID1300, AID1808, AID504735, AID631]”; assay type: functional
[3] = target: Peroxisome proliferator-activated receptor gamma/Nuclear receptor coactivator 2 (Homo sapiens, UniProt P37231); experiment: TR-FRET dose response biochemical High Throughput Screening assay for agonists of the steroid receptor coactivator 2 (SRC-2) recruitment by the peroxisome proliferator-activated receptor gamma (PPAR gamma): non-selective agonists. [Related pubchem assays: 1297, 1032 ]; assay type: functional
[4] = target: DNA damage-inducible transcript 3 protein (Mus musculus, UniProt P35639); assay type: functional, Cricetulus griseus
[5] = target: T1, Protein skinhead-1 (Caenorhabditis elegans, UniProt P34707); assay type: functional
T1 sequence (P34707 whole entry): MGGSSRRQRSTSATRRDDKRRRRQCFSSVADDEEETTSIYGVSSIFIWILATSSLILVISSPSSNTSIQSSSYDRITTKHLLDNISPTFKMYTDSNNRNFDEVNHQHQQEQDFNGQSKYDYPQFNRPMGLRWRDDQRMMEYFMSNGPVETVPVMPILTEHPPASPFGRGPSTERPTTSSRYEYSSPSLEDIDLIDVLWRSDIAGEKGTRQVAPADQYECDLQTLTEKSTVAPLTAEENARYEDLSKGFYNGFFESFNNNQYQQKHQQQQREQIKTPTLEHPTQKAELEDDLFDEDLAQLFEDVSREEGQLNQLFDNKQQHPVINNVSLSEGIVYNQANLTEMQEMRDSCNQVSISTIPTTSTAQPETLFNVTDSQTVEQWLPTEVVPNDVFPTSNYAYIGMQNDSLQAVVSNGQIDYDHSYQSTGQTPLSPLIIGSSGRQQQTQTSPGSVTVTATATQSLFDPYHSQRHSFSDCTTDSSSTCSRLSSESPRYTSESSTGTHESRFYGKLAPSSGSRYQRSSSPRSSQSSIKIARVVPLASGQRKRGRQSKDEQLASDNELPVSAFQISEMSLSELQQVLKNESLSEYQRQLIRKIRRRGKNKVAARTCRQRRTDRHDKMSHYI

[6] = target: Dual specificity tyrosine-phosphorylation-regulated kinase 1A (Rattus norvegicus, UniProt Q63470); assay type: biochemical, Homo sapiens
[7] = target: T2, DNA repair and recombination protein RAD54-like (Homo sapiens, UniProt Q92698); experiment: RAD54 Holliday junction migration blockers – biochemical, fluorescence, cherry-picked samples, dose series, confirmation (AID 651657); assay type: functional
T2 sequence (Q92698 whole entry): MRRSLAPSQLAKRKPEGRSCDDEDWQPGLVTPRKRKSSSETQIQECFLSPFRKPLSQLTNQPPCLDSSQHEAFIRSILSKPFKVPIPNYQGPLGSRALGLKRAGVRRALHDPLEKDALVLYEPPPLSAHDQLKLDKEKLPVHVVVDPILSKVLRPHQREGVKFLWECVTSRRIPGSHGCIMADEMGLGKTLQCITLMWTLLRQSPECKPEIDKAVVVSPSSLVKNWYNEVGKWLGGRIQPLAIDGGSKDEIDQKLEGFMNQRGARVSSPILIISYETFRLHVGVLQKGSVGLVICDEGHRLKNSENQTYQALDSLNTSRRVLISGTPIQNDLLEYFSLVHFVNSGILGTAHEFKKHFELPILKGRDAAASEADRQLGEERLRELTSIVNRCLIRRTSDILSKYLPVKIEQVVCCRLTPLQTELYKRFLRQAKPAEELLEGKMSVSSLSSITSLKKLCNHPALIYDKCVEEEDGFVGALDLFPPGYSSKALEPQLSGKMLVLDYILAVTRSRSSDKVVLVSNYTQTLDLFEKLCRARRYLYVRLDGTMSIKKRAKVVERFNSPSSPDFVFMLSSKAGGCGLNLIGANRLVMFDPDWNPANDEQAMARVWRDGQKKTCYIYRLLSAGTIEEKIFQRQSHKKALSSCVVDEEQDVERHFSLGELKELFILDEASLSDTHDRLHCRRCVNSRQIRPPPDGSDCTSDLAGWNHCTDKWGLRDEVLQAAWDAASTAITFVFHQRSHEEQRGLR

[8] = target: Endoplasmic reticulum aminopeptidase 1 (Homo sapiens, UniProt Q9NZ08); experiment: inhibition of human ERAP1 enzyme activity – biochemical, cherry-pick, set 2, plate reader, dose response (AID 743314)
[9] = NIH-3T3 fibroblast cytotoxicity, dose response, cytotoxicity control, cell-based, fluorescence, Alamar Blue, secondary assay (AID 2327); assay type: functional;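 note: NIH-3T3 mouse fibroblasts cultured with fluconazole at 8 µg/mL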
[10] = fluconazole-exposed Candida albicans growth modulators – fluorescence, retest, confirmation (AID 2467); assay type: functional, cell-based
[11] = target: T3, Serine/threonine-protein phosphatase (Candida dubliniensis (strain CD36 / CBS 7987 / NCPF 3949 / NRRLY-17841) (Yeast), UniProt B9W6M3); experiment: blockers of CaCl2-induced CDRE-lacZ signaling – S. cerevisiae, luminescence, secondary, dose response (AID 2388); assay type: functional, cell-based;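 note: yeast reporter cells carrying a calcineurin-responsive lacZ construct stimulated with calcium chloride; luminescent beta-galactosidase reporter signal in whole cells rather than isolated phosphatase activity; potency for inhibition where a drop in reporter signal means calcineurin blockade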
T3 sequence (B9W6M3 whole entry): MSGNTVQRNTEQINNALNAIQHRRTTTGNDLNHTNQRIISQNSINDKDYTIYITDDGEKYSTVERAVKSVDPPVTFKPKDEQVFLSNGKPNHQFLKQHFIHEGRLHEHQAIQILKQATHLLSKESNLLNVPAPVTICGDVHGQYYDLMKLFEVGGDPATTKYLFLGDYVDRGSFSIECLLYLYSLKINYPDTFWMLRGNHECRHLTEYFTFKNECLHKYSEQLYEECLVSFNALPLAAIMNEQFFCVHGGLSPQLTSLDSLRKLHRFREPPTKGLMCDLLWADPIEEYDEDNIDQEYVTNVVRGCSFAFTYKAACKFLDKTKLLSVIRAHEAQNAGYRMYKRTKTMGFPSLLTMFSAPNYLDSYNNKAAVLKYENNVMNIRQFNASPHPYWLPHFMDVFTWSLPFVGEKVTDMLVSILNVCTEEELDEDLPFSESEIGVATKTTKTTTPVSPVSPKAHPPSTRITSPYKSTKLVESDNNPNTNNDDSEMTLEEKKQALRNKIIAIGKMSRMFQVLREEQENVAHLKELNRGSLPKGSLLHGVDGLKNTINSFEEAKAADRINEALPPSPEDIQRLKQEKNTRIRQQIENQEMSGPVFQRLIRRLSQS

[12] = target: ATP-dependent molecular chaperone HSP82 (Candida albicans (strain WO-1) (Yeast), UniProt C4YTQ8); experiment: steroid-induced GRE reporter decrease in yeast – S. cerevisiae, luminescence, Hsp90 inhibitor project, dose response (AID 2400); assay type: functional, cell-based;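 note: beta-galactosidase luminescence from glucocorticoid response element reporter as proxy for Hsp90 function; inhibitor potency where signal loss means Hsp90 inhibition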
[13] = system: BJ; experiment: BJ-TERT fibroblast viability loss – cell-based, RAS-independent, luminescence, dose response (AID 1933); assay type: functional; conditions: Homo sapiens
[14] = cells; assay type: functional, cell-based
[15] = system: BJ; experiment: cells; assay type: functional, cell-based; conditions: Homo sapiens
[16] = cells; assay type: functional, cell-based; remark: listed apart in the source
[17] = system: BJ; experiment: BJ-TERT-LT-ST fibroblast viability loss – cell-based, RAS-independent, luminescence, dose response (AID 1935); assay type: functional; conditions: Homo sapiens;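 note: BJ fibroblasts immortalized with TERT plus LT and ST oncogenes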
[18] = DRD fibroblast viability loss – cell-based, non-viral oncogenic, luminescence, dose response (AID 1934); assay type: functional; conditions: Homo sapiens
[19] = target: T4, Microphthalmia-associated transcription factor (Homo sapiens, UniProt O75030); experiment: reducers of TRPM1 reporter luminescence, concentration series – cell-based, SK-MEL-5, cherry-picked, set 3, MITF inhibitor project, dose response (AID 493073); assay type: functional;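 note: SK-MEL-5 melanoma cells with luciferase driven by the MITF target TRPM1 promoter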
T4 sequence (O75030 whole entry): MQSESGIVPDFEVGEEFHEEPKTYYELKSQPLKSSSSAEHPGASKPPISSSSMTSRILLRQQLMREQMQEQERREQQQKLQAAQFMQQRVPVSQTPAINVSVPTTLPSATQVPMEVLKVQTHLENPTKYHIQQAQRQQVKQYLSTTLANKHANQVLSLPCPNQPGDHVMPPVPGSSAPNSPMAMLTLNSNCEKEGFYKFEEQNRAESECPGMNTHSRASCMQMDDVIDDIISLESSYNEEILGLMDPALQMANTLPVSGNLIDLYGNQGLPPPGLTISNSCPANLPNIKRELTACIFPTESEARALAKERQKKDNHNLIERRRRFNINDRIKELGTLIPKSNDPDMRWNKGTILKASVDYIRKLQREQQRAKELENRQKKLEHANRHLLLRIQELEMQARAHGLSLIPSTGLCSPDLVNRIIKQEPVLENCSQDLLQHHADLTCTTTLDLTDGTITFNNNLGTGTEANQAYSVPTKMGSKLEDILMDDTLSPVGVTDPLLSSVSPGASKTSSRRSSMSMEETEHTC

[20] = system: INS1; experiment: INS-1E survival protection against cytokine death – cell-based, luminescence, retest, dose response (AID 449756); assay type: functional; conditions: Rattus norvegicus;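 note: cell death triggered by IL-1 beta plus TNF-alpha plus IFN-gamma mixture; protective hits raise ATP signal compared with cytokine alone wells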

Chain of Endoplasmic reticulum aminopeptidase 1 (Q9NZ08 whole entry): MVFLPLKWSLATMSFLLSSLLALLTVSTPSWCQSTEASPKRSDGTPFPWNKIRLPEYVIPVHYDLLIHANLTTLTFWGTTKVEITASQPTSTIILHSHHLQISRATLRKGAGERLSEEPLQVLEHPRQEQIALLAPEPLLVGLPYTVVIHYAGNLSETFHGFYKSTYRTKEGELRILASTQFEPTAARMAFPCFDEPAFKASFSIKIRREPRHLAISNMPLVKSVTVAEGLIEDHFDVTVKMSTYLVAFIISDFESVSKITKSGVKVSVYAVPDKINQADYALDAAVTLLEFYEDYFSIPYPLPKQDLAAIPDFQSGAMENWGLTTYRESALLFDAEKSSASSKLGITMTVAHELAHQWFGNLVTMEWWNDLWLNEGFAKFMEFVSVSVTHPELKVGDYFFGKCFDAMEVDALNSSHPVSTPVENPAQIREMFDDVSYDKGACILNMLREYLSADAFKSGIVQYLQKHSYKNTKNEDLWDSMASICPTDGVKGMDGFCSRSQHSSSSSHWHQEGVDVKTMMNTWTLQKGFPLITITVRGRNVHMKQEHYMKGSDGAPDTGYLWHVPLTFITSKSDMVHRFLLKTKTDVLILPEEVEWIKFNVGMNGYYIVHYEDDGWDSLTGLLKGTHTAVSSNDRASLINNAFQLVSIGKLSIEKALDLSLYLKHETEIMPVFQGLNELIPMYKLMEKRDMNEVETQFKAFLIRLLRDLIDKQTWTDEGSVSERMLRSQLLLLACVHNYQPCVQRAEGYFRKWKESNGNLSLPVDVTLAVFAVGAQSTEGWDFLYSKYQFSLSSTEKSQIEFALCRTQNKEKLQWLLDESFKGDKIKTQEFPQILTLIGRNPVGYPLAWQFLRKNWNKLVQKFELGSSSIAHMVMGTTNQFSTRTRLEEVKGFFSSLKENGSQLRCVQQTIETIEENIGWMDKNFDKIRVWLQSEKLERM
Chain of Peroxisome proliferator-activated receptor gamma/Nuclear receptor coactivator 2 (P37231 whole entry): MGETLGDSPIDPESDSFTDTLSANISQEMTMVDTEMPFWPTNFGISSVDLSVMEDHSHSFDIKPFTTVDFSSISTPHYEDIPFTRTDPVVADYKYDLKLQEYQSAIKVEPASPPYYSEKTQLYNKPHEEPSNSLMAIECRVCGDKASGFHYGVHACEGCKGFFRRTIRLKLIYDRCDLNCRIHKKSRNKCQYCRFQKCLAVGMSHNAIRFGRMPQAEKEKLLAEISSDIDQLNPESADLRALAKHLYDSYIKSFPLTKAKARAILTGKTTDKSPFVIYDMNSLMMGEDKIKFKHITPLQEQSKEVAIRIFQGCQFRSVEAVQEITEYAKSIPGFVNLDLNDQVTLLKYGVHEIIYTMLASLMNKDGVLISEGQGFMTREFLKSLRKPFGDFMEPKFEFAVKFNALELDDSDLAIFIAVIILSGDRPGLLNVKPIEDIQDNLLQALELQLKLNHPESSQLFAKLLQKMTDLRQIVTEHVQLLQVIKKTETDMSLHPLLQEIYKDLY
Chain of Peroxisome proliferator-activated receptor gamma/Nuclear receptor coactivator 2 (Q15596 whole entry, further chain): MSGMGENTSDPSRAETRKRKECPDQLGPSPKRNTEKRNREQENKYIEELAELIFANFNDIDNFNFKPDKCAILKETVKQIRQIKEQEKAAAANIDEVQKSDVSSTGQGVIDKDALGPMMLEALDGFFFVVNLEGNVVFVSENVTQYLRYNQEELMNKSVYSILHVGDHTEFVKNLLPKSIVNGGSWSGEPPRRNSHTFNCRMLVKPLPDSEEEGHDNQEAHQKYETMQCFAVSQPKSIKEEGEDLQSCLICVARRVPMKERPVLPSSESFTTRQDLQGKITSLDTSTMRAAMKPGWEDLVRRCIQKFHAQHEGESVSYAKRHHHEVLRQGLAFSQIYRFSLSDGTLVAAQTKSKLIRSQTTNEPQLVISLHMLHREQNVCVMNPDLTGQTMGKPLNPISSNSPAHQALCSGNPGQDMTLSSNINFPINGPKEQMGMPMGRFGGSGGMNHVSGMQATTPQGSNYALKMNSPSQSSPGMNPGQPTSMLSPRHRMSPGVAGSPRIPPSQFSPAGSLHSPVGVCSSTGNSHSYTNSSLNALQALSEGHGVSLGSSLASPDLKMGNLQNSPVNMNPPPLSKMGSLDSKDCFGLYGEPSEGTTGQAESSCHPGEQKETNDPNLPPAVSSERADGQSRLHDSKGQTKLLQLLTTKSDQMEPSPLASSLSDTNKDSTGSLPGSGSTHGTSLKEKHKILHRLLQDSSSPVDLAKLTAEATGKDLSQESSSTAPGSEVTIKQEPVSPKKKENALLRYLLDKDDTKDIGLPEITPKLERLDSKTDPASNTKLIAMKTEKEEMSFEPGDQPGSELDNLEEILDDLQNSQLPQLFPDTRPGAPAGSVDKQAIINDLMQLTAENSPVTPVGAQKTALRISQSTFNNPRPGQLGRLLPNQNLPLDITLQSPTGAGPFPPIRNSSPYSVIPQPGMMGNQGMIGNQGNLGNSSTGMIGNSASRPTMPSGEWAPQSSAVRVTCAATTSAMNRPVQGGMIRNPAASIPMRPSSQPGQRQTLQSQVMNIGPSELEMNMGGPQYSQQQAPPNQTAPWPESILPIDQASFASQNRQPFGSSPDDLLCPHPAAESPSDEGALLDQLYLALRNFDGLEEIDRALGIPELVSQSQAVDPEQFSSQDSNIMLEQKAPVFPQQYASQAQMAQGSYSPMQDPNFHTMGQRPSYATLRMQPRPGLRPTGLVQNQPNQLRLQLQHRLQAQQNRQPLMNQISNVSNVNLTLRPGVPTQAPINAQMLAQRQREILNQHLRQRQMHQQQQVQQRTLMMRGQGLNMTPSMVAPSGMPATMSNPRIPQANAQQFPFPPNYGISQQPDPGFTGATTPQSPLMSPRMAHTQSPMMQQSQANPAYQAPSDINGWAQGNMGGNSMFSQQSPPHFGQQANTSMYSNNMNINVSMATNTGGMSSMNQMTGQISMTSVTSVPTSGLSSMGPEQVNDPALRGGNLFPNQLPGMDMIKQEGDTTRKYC
Chain of Peroxisome proliferator-activated receptor gamma/Nuclear receptor coactivator 3 (P37231 whole entry): as the sequence (P37231 whole entry) above
Chain of Peroxisome proliferator-activated receptor gamma/Nuclear receptor coactivator 3 (Q9Y6Q9 whole entry, further chain): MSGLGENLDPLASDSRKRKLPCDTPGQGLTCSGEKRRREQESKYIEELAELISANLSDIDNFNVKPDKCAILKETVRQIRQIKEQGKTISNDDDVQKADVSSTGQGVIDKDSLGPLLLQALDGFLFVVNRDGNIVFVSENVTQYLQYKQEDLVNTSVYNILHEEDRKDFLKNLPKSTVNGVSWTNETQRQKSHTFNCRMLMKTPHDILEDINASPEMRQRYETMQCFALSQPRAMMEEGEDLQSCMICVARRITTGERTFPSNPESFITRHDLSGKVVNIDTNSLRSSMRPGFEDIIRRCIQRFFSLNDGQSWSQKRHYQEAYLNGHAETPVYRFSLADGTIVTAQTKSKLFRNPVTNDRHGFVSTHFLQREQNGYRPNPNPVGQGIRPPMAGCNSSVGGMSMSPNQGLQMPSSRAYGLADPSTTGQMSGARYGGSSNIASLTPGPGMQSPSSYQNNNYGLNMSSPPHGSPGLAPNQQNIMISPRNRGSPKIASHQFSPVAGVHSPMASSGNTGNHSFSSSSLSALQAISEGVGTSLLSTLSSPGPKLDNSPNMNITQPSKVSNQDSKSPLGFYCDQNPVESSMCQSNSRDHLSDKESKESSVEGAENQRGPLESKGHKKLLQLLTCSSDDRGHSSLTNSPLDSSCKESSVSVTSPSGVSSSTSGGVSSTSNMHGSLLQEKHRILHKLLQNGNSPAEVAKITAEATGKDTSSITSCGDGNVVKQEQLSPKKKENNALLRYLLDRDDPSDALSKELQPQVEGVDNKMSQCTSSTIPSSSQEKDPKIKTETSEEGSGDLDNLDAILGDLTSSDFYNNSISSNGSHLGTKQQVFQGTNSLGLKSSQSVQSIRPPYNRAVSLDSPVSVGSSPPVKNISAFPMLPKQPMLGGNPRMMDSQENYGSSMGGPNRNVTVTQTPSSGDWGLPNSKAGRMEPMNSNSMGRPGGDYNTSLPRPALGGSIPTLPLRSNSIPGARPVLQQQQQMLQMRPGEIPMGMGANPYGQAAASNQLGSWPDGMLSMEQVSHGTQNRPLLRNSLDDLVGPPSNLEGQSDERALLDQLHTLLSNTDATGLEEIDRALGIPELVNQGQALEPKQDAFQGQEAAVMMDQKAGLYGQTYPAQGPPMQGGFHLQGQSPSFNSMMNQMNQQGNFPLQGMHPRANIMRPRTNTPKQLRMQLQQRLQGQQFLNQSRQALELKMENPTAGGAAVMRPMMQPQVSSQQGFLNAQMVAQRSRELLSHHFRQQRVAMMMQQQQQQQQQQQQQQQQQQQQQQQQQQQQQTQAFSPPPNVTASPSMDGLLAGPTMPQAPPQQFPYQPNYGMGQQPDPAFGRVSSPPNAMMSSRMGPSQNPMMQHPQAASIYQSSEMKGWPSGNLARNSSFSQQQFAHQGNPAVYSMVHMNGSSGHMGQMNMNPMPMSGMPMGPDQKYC
Chain of DNA damage-inducible transcript 3 protein (P35639 whole entry): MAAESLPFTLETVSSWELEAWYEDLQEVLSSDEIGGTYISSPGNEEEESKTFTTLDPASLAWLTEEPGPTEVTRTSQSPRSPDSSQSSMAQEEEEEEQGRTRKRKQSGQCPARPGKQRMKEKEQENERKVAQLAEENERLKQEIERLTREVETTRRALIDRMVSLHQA

SMILES: CCn1c(=O)cc(SCC(=O)NCc2ccccn2)c2ccccc21
EC50 [1]: > 79.4 µM (inactive)
EC50 [2]: > 79.4 µM (not active)
EC50 [3]: > 79.4 µM (not active)

SMILES: COc1cc(O)c2c(=O)c3c(O)c(O)ccc3oc2c1OC
AC50 [6]: 2.06 µM (active)

SMILES: O=C(N/N=C/c1cc([N+](=O)[O-])ccc1O)c1ccc(COc2ccc3c(c2)CCC3)o1
EC50 [9]: 11.6 µM (active)
EC50 [10]: 1.19 µM (active)
EC50 [11]: > 180 µM (inactive)
EC50 [12]: 28.3 µM (active)

SMILES: COc1ccc(O)c(/C=N/NC(=O)c2ccc(CSc3nc(C)cc(C)n3)cc2)c1
EC50 [9]: > 150 µM (inactive)
EC50 [13]: 20.6 µM (active)
EC50 [14]: 24 µM (active)
EC50 [15]: 17.5 µM (inconclusive)
EC50 [10]: > 38 µM (not active)
EC50 [16]: > 350 µM (not active)
EC50 [17]: > 75 µM (not active)
EC50 [18]: 27.7 µM (active)
AC50 [19]: 9.31 µM (active)
AC50 [20]: 4.6 µM (active)

SMILES: COc1ccc(/C=C2\SC(=N)NC2=O)cc1
AC50 [6]: 0.038 µM (active)

SMILES: O=C(Nc1ccc(Cl)cc1)Nc1ccc2c(c1)N1CCN=C1S2
AC50 [6]: 1.07 µM (active)

More lines, main results first:

IC50 [5]: > 100 µM (inactive)
SMILES: COC(=O)CN1C(=S)N(Cc2ccccc2)C(=O)C1CC(=O)Nc1ccc(Br)cc1 (centres undefined)
Absolute IC50 (CHOP) [4]: 10 µM

AC50 [7]: 20.2 µM (active)
SMILES: O=C1c2cccc3cccc(c23)C(=O)N1CCCn1ccnc1

AC50 [8]: 8.13 µM (active)
SMILES: CC(=O)N1[C@@H]2Cn3c(ccc(/C=C/c4ccccc4)c3=O)[C@H]1[C@@H](C(=O)NCC1CC1)[C@@H]2CO
